Each structure is given as a SMILES string. Structures can show the parent of a compound that is named as a salt.

Usually IC50 stands for the concentration at which inhibition is half-maximal.

What all share (type): biochemical
One test concerns the target recombinant rat PIM-3 (Rattus norvegicus, UniProt O70444). Briefly: PIM-3 Assay (as Example A). As to conditions: averaged IC50; 30 μM ATP, 3.75 μM PIM2tide, 0.5 nM PIM-3. The method, then: (§1) The assay for the determination of PIM-1 activity is based on the incorporation of [^33P]PO4 from [γ-^33P]ATP into PIM2tide substrate and capture of the radiolabeled peptide onto a Whatman P81 (phosphocellulose) filter plate. The amount of radiolabeled product is then measured by liquid scintillation counting. The final buffer conditions were as follows: 20 mM K^+MOPS, pH 7.4, 10 mM MgCl2, 0.005% Tween-20, 1 mM DTT. Assay mixtures contained 35 μM [γ-^33P]ATP (20 μCi/mL), 7.5 μM PIM2tide and 0.25 nM PIM-1 in a total volume of 50 μL. Incubations were carried out for 60 min at 22° C. and quenched with 75 μL of 200 mM H3PO4, filtered through a Whatman P81 plate and washed (1×200 μL and 5×100 μL) with 200 mM H3PO4. Fifty μL of liquid scintillation cocktail were then added per well, and the plate was counted for 30 s/well using a TopCount NXT.
(§2) Compounds were prepared at 50× the final concentration in DMSO by conducting 3-fold serial dilutions from a 500-μM intermediate dilution to give a 10-point dosing curve having a high dose of 10 μM. One-μL aliquots of these were then transferred to the assay mixtures above to give a final concentration of DMSO of 2%. A standard or reference compound was typically included on each assay plate to validate that plate. For each plate, percent of control (POC) values were calculated for each well. IC50 values were estimated from the POC values using a standard 4-parameter logistic model. The IC50 is defined as the concentration of inhibitor at which the POC equals 50 for the fitted curve.
Assay was performed as described in Example A, using 30 μM [γ-^33P]ATP (20 μCi/mL), 3.75 μM PIM2tide and 0.5 nM recombinant rat PIM-3 in place of PIM-1.

Test [1] has as its target T1, GST-tagged recombinant full-length human Pim-2 (Homo sapiens, UniProt Q9P1W9).
T1 construct: GST-tagged recombinant full-length human Pim-2; GST
The test is described as follows: PIM-2 Assay (as Example A). Conditions: averaged IC50; 4 μM ATP, 1.0 μM PIM2tide, 1.5 nM Pim-2. On the procedure: as §1, §2
Assay was performed as described in Example A, using 4 μM [γ-^33P]ATP (20 μCi/mL), 1.0 μM PIM2tide and 1.5 nM GST-tagged recombinant full-length human Pim-2 in place of PIM-1.

The target in a further test is PIM-1 (Homo sapiens, UniProt P11309). The test is described as follows: Enzyme PIM-1 Assay ([33P]ATP incorporation into PIM2tide, filter plate). Conditions: averaged IC50; 35 μM ATP, 7.5 μM PIM2tide, 0.25 nM PIM-1, 60 min at 22° C. On the procedure: as §1, §2
Chain of PIM-1 (P11309 whole entry, species assumed): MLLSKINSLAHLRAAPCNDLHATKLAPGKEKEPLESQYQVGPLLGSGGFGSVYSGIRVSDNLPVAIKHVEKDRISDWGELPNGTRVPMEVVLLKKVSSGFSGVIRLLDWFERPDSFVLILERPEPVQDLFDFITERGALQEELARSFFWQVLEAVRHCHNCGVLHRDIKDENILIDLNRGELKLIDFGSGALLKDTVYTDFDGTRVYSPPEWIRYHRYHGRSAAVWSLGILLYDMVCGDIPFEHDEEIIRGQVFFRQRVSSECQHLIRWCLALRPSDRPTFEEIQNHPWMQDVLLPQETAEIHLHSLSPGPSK

T1 sequence (Q9P1W9 whole entry): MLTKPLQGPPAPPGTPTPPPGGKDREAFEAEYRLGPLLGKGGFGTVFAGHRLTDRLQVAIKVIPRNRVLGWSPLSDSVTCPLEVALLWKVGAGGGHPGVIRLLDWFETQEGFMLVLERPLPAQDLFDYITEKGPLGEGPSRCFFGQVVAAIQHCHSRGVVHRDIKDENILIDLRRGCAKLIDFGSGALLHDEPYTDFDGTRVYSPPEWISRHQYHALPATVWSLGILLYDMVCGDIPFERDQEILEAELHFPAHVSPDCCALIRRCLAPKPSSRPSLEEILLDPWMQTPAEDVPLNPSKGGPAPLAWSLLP

On to `COCCOc1ccc2cc(F)c(-c3nnc4ccc(C(N5CC[C@](C)(N)C5)C(F)(F)F)cn34)nc2c1` (stereo in doubt) [Example 327, (S)-3-methyl-1-((R)-2,2,2-trifluoro-1-(3-(3-fluoro-7-(2-methoxyethoxy)quinolin-2-yl)-[1,2,4]triazolo[4,3-a]pyridin-6-yl)ethyl)pyrrolidin-3-amine], for which the IC50 on recombinant rat PIM-3 is 1.34 nM; in test [1], 340 nM; against PIM-1, 0.42 nM.

As for `COc1cccc2ccc(-c3nnc4ccc(C(N5CC[C@H](N)C5)C(F)(F)F)cn34)nc12` (stereo partly drawn) [Example 1, (3S)-1-(2,2,2-trifluoro-1-(3-(8-methoxyquinolin-2-yl)-[1,2,4]triazolo[4,3-a]pyridin-6-yl)ethyl)pyrrolidin-3-amine dihydrochloride], the values for the IC50 (on recombinant rat PIM-3; in test [1]; on PIM-1) were 1.7 nM, 161 nM and 0.43 nM, respectively.

As to `N[C@H]1CCN(C(c2ccc3nnc(-c4ccc5ccc(Br)cc5n4)n3c2)C(F)(F)F)C1` (stereo partly drawn) [Example 2, (3S)-1-(1-(3-(7-bromoquinolin-2-yl)-[1,2,4]triazolo[4,3-a]pyridin-6-yl)-2,2,2-trifluoroethyl)pyrrolidin-3-amine dihydrochloride], the IC50 at recombinant rat PIM-3 stood at 1 nM; in test [1] it was 74 nM; against PIM-1 it was 0.19 nM.

Turning to `N[C@H]1CCN(C(c2ccc3nnc(-c4ccc5ccc(C6CC6)cc5n4)n3c2)C(F)(F)F)C1` (stereo partly drawn) [Example 3, (3S)-1-(1-(3-(7-cyclopropylquinolin-2-yl)-[1,2,4]triazolo[4,3-a]pyridin-6-yl)-2,2,2-trifluoroethyl)pyrrolidin-3-amine dihydrochloride], the IC50 at recombinant rat PIM-3 was determined as 0.3 nM; in test [1] it was 53 nM; against PIM-1, 0.13 nM.

On to `Cn1cc(-c2ccc3ccc(-c4nnc5ccc(C(N6CC[C@H](N)C6)C(F)(F)F)cn45)nc3c2)cn1` (stereo partly drawn) [Example 4, (3S)-1-(2,2,2-trifluoro-1-(3-(7-(1-methyl-1H-pyrazol-4-yl)quinolin-2-yl)-[1,2,4]triazolo[4,3-a]pyridin-6-yl)ethyl)pyrrolidin-3-amine trihydrochloride], for which the IC50 on recombinant rat PIM-3 was 12 nM; in test [1], 451 nM; on PIM-1, 0.84 nM.

As to `N[C@H]1CCN(C(c2ccc3nnc(-c4ccc5cccc(OCC6CC6)c5n4)n3c2)C(F)(F)F)C1` (stereo partly drawn) [Example 5, (3S)-1-(1-(3-(8-(cyclopropylmethoxy)quinolin-2-yl)-[1,2,4]triazolo[4,3-a]pyridin-6-yl)-2,2,2-trifluoroethyl)pyrrolidin-3-amine dihydrochloride], the results for the IC50 (at recombinant rat PIM-3; in test [1]; against PIM-1) were 2.6 nM, 131 nM and 0.25 nM, respectively.

In the case of `COc1cccc2ccc(-c3nnc4ccc(C(N5CCCC5)C(F)(F)F)cn34)nc12` (stereo not drawn) [Example 6, 8-methoxy-2-(6-(2,2,2-trifluoro-1-(pyrrolidin-1-yl)ethyl)-[1,2,4]triazolo[4,3-a]pyridin-3-yl)quinoline], the IC50 on recombinant rat PIM-3 is > 100 nM; in test [1], > 1000 nM; against PIM-1, 11.1 nM.

Regarding `COc1cccc2ccc(-c3nnc4ccc(C(N5CC[C@H](O)C5)C(F)(F)F)cn34)nc12` (stereo partly drawn) [Example 7, (3S)-1-(2,2,2-trifluoro-1-(3-(8-methoxyquinolin-2-yl)-[1,2,4]triazolo[4,3-a]pyridin-6-yl)ethyl)pyrrolidin-3-ol], the values for the IC50 (at recombinant rat PIM-3; in test [1]; at PIM-1) were 45 nM, > 1000 nM and 3.94 nM, respectively.

Take `COc1cccc2ccc(-c3nnc4ccc([C@H](N5CC[C@H](N)C5)C(F)(F)F)cn34)nc12` [Example 8, (S)-1-((S)-2,2,2-trifluoro-1-(3-(8-methoxyquinolin-2-yl)-[1,2,4]triazolo[4,3-a]pyridin-6-yl)ethyl)pyrrolidin-3-amine dihydrochloride]: the IC50 came out at 2.5 nM at recombinant rat PIM-3, 151 nM in test [1] and 1.31 nM on PIM-1.

With `COc1cccc2ccc(-c3nnc4ccc([C@@H](N5CC[C@H](N)C5)C(F)(F)F)cn34)nc12` [Example 9, (S)-1-((R)-2,2,2-trifluoro-1-(3-(8-methoxyquinolin-2-yl)-[1,2,4]triazolo[4,3-a]pyridin-6-yl)ethyl)pyrrolidin-3-amine dihydrochloride], the results for the IC50 (on recombinant rat PIM-3; in test [1]; against PIM-1) were 4.2 nM, 403 nM and 0.68 nM, respectively.

`N[C@@H]1CCN(C(c2ccc3nnc(-c4ccc5cccc(OCC6CC6)c5n4)n3c2)C(F)(F)F)C1` (stereo partly drawn) [Example 16, (3R)-1-(1-(3-(8-(cyclopropylmethoxy)quinolin-2-yl)-[1,2,4]triazolo[4,3-a]pyridin-6-yl)-2,2,2-trifluoroethyl)pyrrolidin-3-amine dihydrochloride]: the results for the IC50 (at recombinant rat PIM-3; in test [1]; against PIM-1) were 6 nM, 140 nM and 0.28 nM, respectively.

As for `CC(c1ccc2nnc(-c3ccc4cccc(C(C)(C)C)c4n3)n2c1)N1CC[C@H](N)C1` (stereo partly drawn) [Example 17, (3S)-1-(1-(3-(8-tert-butylquinolin-2-yl)-[1,2,4]triazolo[4,3-a]pyridin-6-yl)ethyl)pyrrolidin-3-amine trihydrochloride], the IC50 was 1.2 nM at recombinant rat PIM-3, 12.4 nM in test [1] and 0.06 nM at PIM-1.

On to `N[C@H]1CCN(C(c2ccc3nnc(-c4ccc5ccc(-c6cccnc6)cc5n4)n3c2)C(F)(F)F)C1` (stereo partly drawn) [Example 18, (3S)-1-(2,2,2-trifluoro-1-(3-(7-(pyridin-3-yl)quinolin-2-yl)-[1,2,4]triazolo[4,3-a]pyridin-6-yl)ethyl)pyrrolidin-3-amine tri-hydrochloride], for which the figures for the IC50 (at recombinant rat PIM-3; in test [1]; on PIM-1) were 0.5 nM, 172 nM and 0.25 nM, respectively.

Regarding `COc1cccc2ccc(-c3nnc4ccc(C(N5C[C@H](O)[C@@H](O)C5)C(F)(F)F)cn34)nc12` (stereo partly drawn) [Example 19, (3S,4S)-1-(2,2,2-trifluoro-1-(3-(8-methoxyquinolin-2-yl)-[1,2,4]triazolo[4,3-a]pyridin-6-yl)ethyl)pyrrolidine-3,4-diol], the figures for the IC50 (on recombinant rat PIM-3; in test [1]; at PIM-1) were 25 nM, > 1000 nM and 2.38 nM, respectively.

For the compound `CN[C@H]1CCN(C(c2ccc3nnc(-c4ccc5cccc(OCC6CC6)c5n4)n3c2)C(F)(F)F)C1` (stereo partly drawn) [Example 20, (3S)-1-(1-(3-(8-(Cyclopropylmethoxy)quinolin-2-yl)-[1,2,4]triazolo[4,3-a]pyridin-6-yl)-2,2,2-trifluoroethyl)-N-methylpyrrolidin-3-amine dihydrochloride], the IC50 at recombinant rat PIM-3 was found to be 3.3 nM; in test [1], 131 nM; against PIM-1 it was 0.35 nM.

As to `NC[C@H]1CCN(C(c2ccc3nnc(-c4ccc5cccc(OCC6CC6)c5n4)n3c2)C(F)(F)F)C1` (stereo partly drawn) [Example 21, ((3R)-1-(1-(3-(8-(cyclopropylmethoxy)quinolin-2-yl)-[1,2,4]triazolo[4,3-a]pyridin-6-yl)-2,2,2-trifluoroethyl)pyrrolidin-3-yl)methanamine dihydrochloride], the results for the IC50 (on recombinant rat PIM-3; in test [1]; at PIM-1) were 46 nM, 427 nM and 1.14 nM, respectively.

On to `NC[C@@H]1CCN(C(c2ccc3nnc(-c4ccc5cccc(OCC6CC6)c5n4)n3c2)C(F)(F)F)C1` (stereo partly drawn) [Example 24, ((3S)-1-(1-(3-(8-(cyclopropylmethoxy)quinolin-2-yl)-[1,2,4]triazolo[4,3-a]pyridin-6-yl)-2,2,2-trifluoroethyl)pyrrolidin-3-yl)methanamine dihydrochloride], for which the IC50 came out at 76 nM at recombinant rat PIM-3, 935 nM in test [1] and 2.01 nM on PIM-1.

Source of the values: US8889704B2 (Array BioPharma Inc., priority 2011, dated 2014).
